Data on one substance can be found in patent US8029799B2, “Use of thymosin alpha 1 for preparing a medicament for the treatment of stage IV malignant melanoma” (SciClone Pharmaceuticals, Inc., priority 2006, dated 2011).

Ends that are not written are not given here.

Assay [1] has as its system methylcholanthrene-induced fibrosarcoma. The conditions noted are these: mice with methylcholanthrene-induced fibrosarcoma; cited from earlier work.
Assay [2] concerns lymphosarcoma cells. As to conditions: BALB/c mice; cited from earlier work.
Assay [3] relates to Stage IV Melanoma Characterized by Distant Unresectable Metastases. Kind of assay: Phase II clinical trial, tumor response (RECIST) in stage IV melanoma patients. The format is in vivo, human. As to conditions: preliminary analysis on 142 patients; higher doses of Tα1.
Protocol: Trial Design phase II, randomized, stratified, open-study testing different doses of Tα1 in association with DTIC and IFNα, as first line therapy for stage IV melanoma patients characterized by distant unresectable metastases (AJCC; Journal of Clinical Oncology 2001, 19: 3635-3648) without brain metastases. The primary study end-point was tumor response, and the following combination composition were used: • DTIC (800 mg/m^2)+IFNα (3 MIU)+Tα1 (1.6 mg) (97 pts); • DTIC (800 mg/m^2)+IFNα (3 MIU)+Tα1 (3.2 mg) (97 pts); • DTIC (800 mg/m^2)+Tα1 (3.2 mg) (98 pts); • DTIC (800 mg/m^2)+IFNα (3 MIU) (94 pts);
The five groups were analyzed independently one another within the so-called “pick the winner” strategy.
Methods: Recycling every 28 days, patients were administered DTIC (800 mg/m^2) i.v. at day 1, Tα1 (1.6, 3.2 or 6.4 mg) s.c. at days 8-11 and 15-18, and IFNα (3 MIU) s.c. at day 11 and 18. Clinical response was evaluated every two cycles according to RECIST criteria (New Guidelines to Evaluate the Response to Treatment in Solid Tumors; Journal of the National Cancer Institute, 2000. 92: 205-216) utilizing a central reader.
The randomized patients were stratified according to the disease site: M1a, M1b or M1c level.
1) Patients with cutaneous, subcutaneous and/or limphnodal metastases with normal serum LDH value (from 96 to 460 U/L) were classified as M1a. […]
For assay [4], the system named is human non-small cell lung cancer (NSCLC) cells. The conditions noted are these: 1 or 10 mg per day subcutaneous; nude mice inoculated with human NSCLC cells; cited from earlier work.

Take “thymosin alpha 1 (SDAAVDTSSEITTKDLKEKKEVVEEAEN; ends and bridges not checked; UniProt P06454 2-29, looked up) [a compound well known in the medical field]”: in assay [1], the pulmonary metastases entry is on record as “reduced”. In assay [2], the “liver and lung metastases of lymphosarcoma cells” value is listed as “significantly reduced”; the local sarcoma growth entry is “significantly reduced”. Besides, the dose-response effect result in assay [3] is recorded as “clear dose-response effect”. Further, the tumor volume entry in assay [4] is given as “significantly decreased”.
